From ChEMBL document CHEMBL1131963, “Novel benzo-fused lactam scaffolds as factor Xa inhibitors” (Bioorg Med Chem Lett, 1999)

Experiments:
[1] = molecular target: T1, Prothrombin (Homo sapiens, UniProt P00734); test: In vitro inhibitory activity against by human enzyme thrombin
[2] = molecular target: T2, Coagulation factor X (Homo sapiens, UniProt P00742); test: In vitro inhibitory activity against human enzyme Coagulation factor X
[3] = molecular target: T2, Coagulation factor X; test: In vitro inhibitory activity against human prothrombinase
[4] = Ratio against factor Xa to prothrombinase
[5] = molecular target: Plasminogen (Homo sapiens, UniProt P00747); test: In vitro inhibitory activity against human enzyme plasmin
[6] = molecular target: T3, Serine protease 1 (Homo sapiens, UniProt P07477); test: In vitro evaluation of inhibition of cleavage of the chromogenic substrate by human enzyme trypsin
[7] = molecular target: T2, Coagulation factor X; test: In vitro inhibitory activity against prothrombinase
[8] = molecular target: T3, Serine protease 1; test: In vitro inhibitory activity against human enzyme trypsin
[9] = molecular target: T1, Prothrombin; test: In vitro inhibitory activity against human enzyme thrombin

Sequence of Plasminogen (P00747 97-580 limits assumed): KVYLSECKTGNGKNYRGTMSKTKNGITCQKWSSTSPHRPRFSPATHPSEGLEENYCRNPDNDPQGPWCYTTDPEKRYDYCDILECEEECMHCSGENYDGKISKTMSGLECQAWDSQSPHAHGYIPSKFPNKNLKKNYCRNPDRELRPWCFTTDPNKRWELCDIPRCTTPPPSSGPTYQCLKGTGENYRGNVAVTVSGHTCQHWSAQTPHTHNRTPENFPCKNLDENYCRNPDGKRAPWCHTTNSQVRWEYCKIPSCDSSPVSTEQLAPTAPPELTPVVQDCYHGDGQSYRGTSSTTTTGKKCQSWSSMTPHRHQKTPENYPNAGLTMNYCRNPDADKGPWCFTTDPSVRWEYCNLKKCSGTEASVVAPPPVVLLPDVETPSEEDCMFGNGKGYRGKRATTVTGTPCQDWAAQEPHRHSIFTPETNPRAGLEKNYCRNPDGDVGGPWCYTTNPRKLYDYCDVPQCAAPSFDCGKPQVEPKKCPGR
Sequence of Plasminogen (P00747 581-810 limits assumed): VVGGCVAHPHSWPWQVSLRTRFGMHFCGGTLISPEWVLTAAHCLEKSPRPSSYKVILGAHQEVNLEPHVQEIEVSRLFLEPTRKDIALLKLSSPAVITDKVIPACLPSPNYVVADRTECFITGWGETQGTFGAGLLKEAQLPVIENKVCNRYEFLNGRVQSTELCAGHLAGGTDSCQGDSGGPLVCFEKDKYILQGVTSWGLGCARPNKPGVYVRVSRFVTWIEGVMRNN
T3 sequence (P07477 whole entry): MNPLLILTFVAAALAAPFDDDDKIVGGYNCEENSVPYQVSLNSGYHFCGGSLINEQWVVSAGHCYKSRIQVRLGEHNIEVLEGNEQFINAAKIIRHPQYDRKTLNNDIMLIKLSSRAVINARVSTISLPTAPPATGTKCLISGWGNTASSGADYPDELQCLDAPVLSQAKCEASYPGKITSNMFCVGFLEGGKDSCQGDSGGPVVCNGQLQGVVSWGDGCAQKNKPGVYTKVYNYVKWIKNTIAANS
T2 sequence (P00742 41-179 limits assumed): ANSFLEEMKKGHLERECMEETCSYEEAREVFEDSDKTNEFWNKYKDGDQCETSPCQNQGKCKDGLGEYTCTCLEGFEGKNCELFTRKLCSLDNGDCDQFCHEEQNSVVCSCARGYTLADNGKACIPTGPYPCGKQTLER
T2 sequence (P00742 235-488 limits assumed): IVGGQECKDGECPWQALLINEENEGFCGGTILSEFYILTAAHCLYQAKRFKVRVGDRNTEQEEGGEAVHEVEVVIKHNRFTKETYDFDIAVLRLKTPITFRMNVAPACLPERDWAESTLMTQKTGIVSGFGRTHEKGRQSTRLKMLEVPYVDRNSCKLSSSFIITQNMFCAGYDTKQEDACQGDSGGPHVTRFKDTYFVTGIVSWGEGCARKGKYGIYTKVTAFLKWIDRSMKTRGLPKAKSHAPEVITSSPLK

IC50 [1] [nM] | IC50 [2] [nM] | IC50 [3] [nM] | Ratio [4] | IC50 [5] [nM] | IC50 [6] [nM] | IC50 [7] [nM] | IC50 [8] [nM] | IC50 [9] [nM] | SMILES
285 | 3.6 | 19.1 | 5.3 | > 2500 | 27 | – | – | – | COc1ccc2c(c1)CC[C@H](NS(=O)(=O)c1ccc3ccccc3c1)C(=O)N2CC(=O)N[C@H]1CCCN(C(=N)N)C1O (some centres not stated)
– | 1.9 | – | 5.2 | > 2500 | – | 9.9 | 1.5 | 829 | COc1ccc2c(c1)CC[C@H](NS(=O)(=O)CC1CCCCC1)C(=O)N2CC(=O)N[C@H]1CCCN(C(=N)N)C1O (some centres not stated)
– | 28.9 | 64.3 | 2.2 | > 2500 | 40 | – | – | > 2500 | COc1ccc2c(c1)N(CC(=O)N[C@H]1CCCN(C(=N)N)C1O)C(=O)[C@@H](NS(=O)(=O)Cc1ccccc1)CC2 (some centres not stated)
– | 20.6 | – | – | > 2500 | – | – | 75 | – | N=C(N)N1CCC[C@H](NC(=O)CN2CCCC[C@H](NS(=O)(=O)Cc3ccccc3)C2=O)C1O (some centres not stated)
– | 7.3 | 17.1 | 2.3 | > 2500 | – | – | 26 | 178 | N=C(N)N1CCC[C@H](NC(=O)CN2C(=O)[C@@H](NS(=O)(=O)Cc3ccccc3)CCc3ccccc32)C1O (some centres not stated)
– | 49 | – | – | > 2500 | – | – | 135 | 192 | N=C(N)N1CCC[C@H](NC(=O)CN2C(=O)[C@H](NS(=O)(=O)Cc3ccccc3)CCc3ccccc32)C1O (some centres not stated)
– | 7.2 | 34.9 | 4.8 | > 2500 | 110 | – | – | > 2500 | COc1ccc2c(c1)CC[C@H](NS(=O)(=O)Cc1ccccc1)C(=O)N2CC(=O)N[C@H]1CCCN(C(=N)N)C1O (some centres not stated)
– | 8.6 | 26.7 | 3.1 | > 2500 | 77 | – | – | 235 | COc1cccc2c1CC[C@H](NS(=O)(=O)Cc1ccccc1)C(=O)N2CC(=O)N[C@H]1CCCN(C(=N)N)C1O (some centres not stated)

SMILES | IC50 [1] [nM] | IC50 [2] [nM] | IC50 [3] [nM] | Ratio [4] | IC50 [5] [nM] | IC50 [6] [nM] | IC50 [7] [nM] | IC50 [8] [nM] | IC50 [9] [nM]
N=C(N)N1CCC[C@H](NC(=O)CN2C(=O)C(NS(=O)(=O)Cc3ccccc3)Cc3ccccc32)C1O (some centres not stated) | – | > 2500 | – | – | > 2500 | – | – | 289 | 17.9
